From patent US9504747B2, “Lipids and lipid compositions for the delivery of active agents” (Novartis AG, priority 2013, dated 2016) come the findings set out here.

A short description of series [1]: pKa measurement of the cationic lipid (TNS fluorescence vs pH). As to conditions: probe TNS (fluorescent probe), pKa of the cationic lipid of formula (I). It counts as physicochemical. On the procedure: Unless indicated otherwise, all pKa's referred to herein were measured at standard temperature and pressure. Also, unless otherwise indicated, all references to pKa are references to pKa measured using the following technique. 2 mM solution of lipid in ethanol was prepared by weighing the lipid and then dissolving it in ethanol. 0.3 mM solution of fluorescent probe TNS in ethanol:methanol 9:1 was prepared by first making 3 mM solution of TNS in methanol and then diluting to 0.3 mM with ethanol. An aqueous buffer containing 200 mM sodium phosphate dibasic and 100 mM citric acid was prepared. […] Using the Hamilton Microlab Star high throughput liquid handler and Hamilton run control software Software, 7.5 uL of probe/lipid mix were added to 242.5 uL of buffer in a 1 mL 96 well plate (model NUNC 260252, […] Nunc International). This was done with all twelve buffers. After mixing in 1 mL 96 well plate, 100 uL of each probe/lipid/buffer mixture was transferred to a 250 uL black with clear bottom 96 well plate (model COSTAR 3904, Corning). The fluorescence measurements are carried out on the SpectraMax M5 spectrophotometer using software SoftMax pro 5.2 and following parameters: After the measurement, the background fluorescence value of an empty well on the 96 well plate was subtracted from each probe/lipid/buffer mixture. The fluorescence intensity values were then normalized to the value at lowest pH. The normalized fluorescence intensity vs. pH chart was then plotted in the Microsoft Excel software. The twelve points were connected with a smooth line. The point on the line at which the normalized fluorescence intensity was equal to 0.5 was found. […] The pKa determined using this method is precise to about 0.1 pKa units.

A short description of series [2]: Polydispersity index (PDI) of the lipid nanoparticle (dynamic light scattering). The format is physicochemical. An excerpt: The lipid nanoparticles (LNPs) were formed by mixing equal volumes of lipids dissolved in alcohol with siRNA dissolved in a citrate buffer by an impinging jet process. […] The siRNA to total lipid ratio is approximately 0.05 (wt/wt). Where a LNP formulation contains four lipid components, the molar ratios correspond to the type of lipid as it appears in the first four columns of the table, in the order that they appear. The ratio of the lipids ranges from 20 to 70 mole percent for the cationic lipid with a target of 40-60, the mole percent of helper lipid ranges from 20 to 70 with a target of 30 to 50, the mole percent of neutral lipid ranges from 0-30, the mole percent of PEG lipid has a range from 1 to 6 with a target of 2 to 5. The concentration of siRNA solution ranges from 0.7 to 1.0 mg/mL with a target of 0.8 to 0.9 mg/mL in a sodium citrate: sodium chloride buffer pH 4-6, with a target of 4.5-5.5. The LNPs are formed by mixing equal volumes of lipid solution in ethanol with siRNA dissolved in a citrate buffer by an impinging jet process through a mixing device with ID ranging from 0.25 to 2.0 mm at a flow rate from 10 to 640 mL/min. The mixed LNP solution is held at room temperature for 0-24 hrs prior to a dilution step. […] The final product is sterile filtered and stored at 4° C. Unless indicated otherwise, all PDIs referred to herein are the PDI of the fully formed nanoparticle, as measured by dynamic light scattering on a Malvern Zetasizer. The nanoparticle sample was diluted in phosphate buffered saline (PBS) so that the count rate was approximately 200-400 kcts. The data is presented in Tables 4 and 5 as a weighted average of the intensity measure.

Series [3] relates to respiratory syncytial virus F protein. As to the kind of experiment: Immunization studies: anti-RSV-F titers after liposome-delivered vA317 self-replicating RNA. The format is in vivo. As to conditions: BALB/c mice, Course A = days 0 & 21, liposomes with 0.1 μg vA317 replicon (naked control 1 μg); for anti-RSV-F titer 2wp1 pool 1 / anti-RSV-F titer 2wp1 pool 2: 2 weeks after first dose; for anti-RSV-F titer 2wp2 pool 1 / anti-RSV-F titer 2wp2 pool 2: 2 weeks after second dose; for anti-RSV-F titer 4wp2 pool 1 / anti-RSV-F titer 4wp2 pool 2: 4 weeks after second dose. The protocol:
BALB/c were immunized with liposomes comprising DSPC, cholesterol, and various lipids of the invention (or, for comparison, the cationic lipid 1,2-dilinoleyloxy-N,N-dimethyl-3-aminopropane or ‘DLinDMA’). The liposomes encapsulated 0.1 μg of “vA317” self-replicating RNA replicon which encodes respiratory syncytial virus F protein (see WO2012/031043). […] Doses were given either on days 0 & 21 or days 0 & 42. Immune responses were assessed 2 weeks after each dose (2wp1, 2wp2), and in some cases also at 4 weeks after the second dose (4wp2). Four series of experiments were performed, each with its own naked control.
In general terms: In antiviral work, replicon cells carry a viral genome segment that copies itself.

The mark [4] stands for this setting: Table 4, FVII siRNA LNP, Chol/DSPC/stealth lipid PEG-DMG, 45/44/9/2.
Where [5] appears, read: Table 4, FVII siRNA LNP, Chol/DSPC/stealth lipid S010, 45/44/9/2.

Structures are written as SMILES. Values joined by “and” are separate entries in the source; they are usually repeats but may differ in a detail not shown here. Equal values may be shown once.

The term pKa denotes the pH at which an ionisable group is half protonated.

Regarding `CCCCCCCC/C=C\CCCCCCCCOc1cc(CN(C)C)cc(OCCCCCCCC/C=C\CCCCCCCC)c1` [Example 1], the pKa in series [1] (Table 4) and in series [1] (Table 5) was 5.59 each time. The compound further had a PDI in series [2] (setting [4]) of 0.05.
In the case of `CCCCC/C=C\C/C=C\CCCCCCCCOc1cc(CN(C)C)cc(OCCCCCCCC/C=C\C/C=C\CCCCC)c1` [Example 2], the pKa in series [1] (Table 4) stood at 5.57. The pKa in series [1] (Table 5) came out at 5.57. This compound also displayed a PDI in series [2] (setting [4]) of 0.04. Further, in series [2] (setting [5]), the PDI is reported as 0.067. Besides, the PDI in series [2] (Table 5, PLK1-424 siRNA LNP, stealth lipid S011, 45/44/9/2) worked out at 0.1. Further, in series [3], the “anti-RSV-F titer 2wp1 pool 1” value turned out to be 217, the “anti-RSV-F titer 2wp1 pool 2” value is reported as 259, the “anti-RSV-F titer 2wp2 pool 1” value worked out at 12785 and the “anti-RSV-F titer 2wp2 pool 2” value is 8232.
With `CCCCC/C=C\C/C=C\CCCCCCCCOc1cc(COC(=O)CCN(C)C)cc(OCCCCCCCC/C=C\C/C=C\CCCCC)c1` [Example 14], the pKa in series [1] (Table 4) was found to be 6.11. The PDI in series [2] (setting [5]) was found to be 0.059. Further, in series [3], the “anti-RSV-F titer 4wp2 pool 1” value was 13687 and 21375; the “anti-RSV-F titer 4wp2 pool 2” value is 18851 and 21347.
As to `CCCCC/C=C\C/C=C\CCCCCCCCOc1cc(COC(=O)CCN(C)C)cc(OCCCCCCCC/C=C\C/C=C\CCCCC)n1` [Example 31], the pKa in series [1] (Table 4) came out at 6.01. The same compound came in with a PDI in series [2] (setting [5]) of 0.049.
With `CCCCC/C=C\C/C=C\CCCCCCCC(=O)OCCCCCCOc1cc(CN(C)C)cc(OCCCCCCOC(=O)CCCCCCC/C=C\C/C=C\CCCCC)c1` [Example 45], the pKa in series [1] (Table 4) came to 5.57.
Still for that read-out and setting: under `CCCCCCCCC(CCCCCCCC)CC(=O)OCCCOc1cc(CN(C)C)cc(OCCCOC(=O)CC(CCCCCCCC)CCCCCCCC)c1` [Example 56] stands 5.93; under `CCCCC/C=C\C/C=C\CCCCCCCC(=O)OCCOCCOc1cc(CN(CC)CC)cc(OCCOCCOC(=O)CCCCCCC/C=C\C/C=C\CCCCC)c1` [Example 58], 5.9.
Still for that read-out and setting: the figure for `CCCCCCCCCCCC(=O)OCCCCCCOc1cc(CN(C)C)cc(OCCCCCCOC(=O)CCCCCCCCCCC)c1` [Example 59] is 6.09.
With `CCCCC/C=C\C/C=C\CCCCCCCCOC(=O)CCC(=O)OCc1cc(COC(=O)CCC(=O)OCCCCCCCC/C=C\C/C=C\CCCCC)cc(CN(C)C)c1` [Example 77], in series [1] (Table 4), the pKa turned out to be 6.09. Besides, the PDI in series [2] (setting [5]) is 0.014.
`CCCCCCCC(=O)OCCCCCCCCCCOC(=O)CCC(=O)OCc1cc(COC(=O)CCC(=O)OCCCCCCCCCCOC(=O)CCCCCCC)cc(CN(C)C)c1` [Example 78] showed a pKa in series [1] (Table 4) of 6.02. The PDI in series [2] (setting [5]) was found to be 0.043.
As to `CCCCCCCCCOC(=O)CCCCCCC(=O)OCc1cc(COC(=O)CCCCCCC(=O)OCCCCCCCCC)cc(CN(C)C)c1` [Example 79], in series [1] (Table 4), the pKa amounted to 6.48.
As for `CCCCC/C=C\C/C=C\CCCCCCCCOc1cc(CCCOC(=O)CCN(C)C)cc(OCCCCCCCC/C=C\C/C=C\CCCCC)c1` [Example 81], in series [3], the “anti-RSV-F titer 2wp1 pool 1” value was found to be 1779, the “anti-RSV-F titer 2wp1 pool 2” value is on record as 1553, the “anti-RSV-F titer 2wp2 pool 1” value is on record as 24648 and the “anti-RSV-F titer 2wp2 pool 2” value was determined as 15304. Also, in series [3], the “anti-RSV-F titer 4wp2 pool 1” value was found to be 41921 and the “anti-RSV-F titer 4wp2 pool 2” value was found to be 34684.
Take `CCCCCCCCCC(=O)OCCCCCCCC(=O)OCc1cc(COC(=O)CCCCCCCOC(=O)CCCCCCCCC)cc(CN(C)C)c1` [Example 83]: in series [1] (Table 4), the pKa is 6.15. In series [2] (setting [5]), this compound came in with a PDI of 0.005.
The compound `CCCCCCCC(=O)OCCCCCC(=O)OCc1cc(COC(=O)CCCCCOC(=O)CCCCCCC)cc(CN(C)C)c1` [Example 85] yielded a pKa in series [1] (Table 4) of 5.72.
Turning to `CCCCC/C=C\C/C=C\CCCCCCCCOC(=O)CCCCOc1cc(CN(C)C)cc(OCCCCC(=O)OCCCCCCCC/C=C\C/C=C\CCCCC)c1` [Example 89], the pKa in series [1] (Table 4) worked out at 6.02. Further, the PDI in series [2] (setting [5]) is given as 0.076.
Turning to `CCCCCCCCCCCCOC(=O)CCCCCOc1cc(CN(C)C)cc(OCCCCCC(=O)OCCCCCCCCCCCC)c1` [Example 90], the pKa in series [1] (Table 4) was found to be 5.81.
With `CCCCC/C=C\C/C=C\CCCCCCCC(=O)OCCCOc1cc(CN(C)C)cc(OCCCOC(=O)CC(CCCCCCCC)CCCCCCCC)c1` [Example 97], the pKa in series [1] (Table 4) stood at 5.82.
`CCCCCCCCOC(=O)CCCCCCCC(=O)OCCCOc1cc(CN(C)C)cc(OCCCOC(=O)CCCCCCCC(=O)OCCCCCCCC)c1` [Example 98]: the pKa in series [1] (Table 4) came to 5.94. In series [2] (setting [5]), this compound registered a PDI of 0.096.
`CCCCCCCCC(CCCCCCCC)CC(=O)OCc1cc(COC(=O)CCCCCCCOC(=O)CCCCCCC)cc(CN(C)C)c1` [Example 101] registered a pKa in series [1] (Table 4) of 6.32.
The same measure, in the same setting: under `CCCCC/C=C\C/C=C\CCCCCCCCOc1cc(CN(C)C)cc(OCCCCOC(=O)CCC(COC(=O)CCCCC)COC(=O)CCCCC)c1C` [Example 104] stands 6.02.
In series [1] (Table 4), `CCCCCCCC(=O)OCC(COC(=O)CCCCCCC)OC(=O)CCC(=O)OCc1cc(COC(=O)CCC(=O)OC(COC(=O)CCCCCCC)COC(=O)CCCCCCC)cc(CN(C)C)c1` [Example 107] gave a pKa of 6.11. This compound came in with a PDI in series [2] (setting [5]) of 0.071.
Taken in the same sequence, the figures for `CCCCC/C=C\C/C=C\CCCCCCCC(=O)OCCCCOc1cc(CN(C)C)cc(OCCCCOC(=O)CC(CCCCCCCC)CCCCCCCC)c1` [Example 109] were 5.98 and 0.09.
